Assay results published in patent publication US20250354986A1, “AFFINITY ENCODED OSCILLATOR ARRAYS, METHODS, AND RELATED ASPECTS FOR MEASURING MOLECULAR BINDING KINETICS” (ARIZONA BOARD OF REGENTS ON BEHALF OF ARIZONA STATE …, priority 2024, published 2025).
Counter-ions that a name gives are not always drawn.

Columns and labels:
[1] = tested on: K082 virions with no GPCR displayed on the envelope; assay: Control nano-oscillators: K082 virion with no GPCR, or AuNP only; settings: K082 virion with no GPCR displayed, or AuNP only without virion
Protocol: By fitting the binding curves with the first order kinetics model, the associate rate constant, dissociate rate constant and equilibrium constants for each nano-oscillator were obtained. […] To validate the individual nano-oscillator results, interactions of the same ligand with high density ensemble virion-oscillators were measured (FIG. 15). The binding response curves are the averaged oscillation amplitude of the entire ensemble area as a function of time. […] This phenomenon is likely due to the heterogeneity in GPCR expression level among individual virions, which will affect maximum binding signal, but not the binding kinetics.

[2] = stated without a test; cited from earlier work
decoding sequence 1 = settings: for averaged equilibrium affinity constant (KA): first barcode group hybridized with its DNA decoding sequence, 37 individual nano-oscillators per probe; for Median of amplitude change for association: group 1 barcode nano-oscillators, hybridization signal
Protocol: (§1) To enable affinity-based barcoding, it is important to ensure nanoarrays are addressable by distinct affinities induced by different nucleotides mismatches. […] Perfectly matched, two and three-nucleotide mismatched complementary single DNA strains were used as barcode sequences on the nanocomplexes. Attributed to the charge-sensitive detection capability of nano-oscillators, hybridization of the charge-rich decoding DNA onto the nano-oscillators were recorded in real-time, enabling the calculation of hybridization affinities.
(§2) In FIG. 8, for each kind of barcode sequence, 37 individual nano-oscillators were measured for statistical study.
(§3) The second step of the measurement is decoding, which identifies the type of GPCRs on individual nano-oscillators, and was achieved by sequentially measuring the binding affinity of all decoding sequences. Each round of decoding flowed 50 nM of a specific readout sequence to hybridize with the barcodes on the nano-oscillator for 550 seconds, followed by buffer washing to dissociate the readout sequence for a duration of 250 seconds. Conducting the ligand screening before decoding can prevent potential issue of saturated oscillation amplitude change that may arise from excessively high negatively charged nano-oscillators after hybridization with the decoding sequence. Throughout all experiments, the injected sample was driven by a syringe pump and flowed onto the upper right portion of the field-of-view to minimize mass transport issues.
(§4) After recording the images, a region of interest (ROI) was selected on each particle (covering the parabolic tail), and the mean intensity within the ROI was calculated as the plasmonic intensity. An adjacent region with the same size was selected as the reference region, and its intensity was used to remove common noise from the ROI. The oscillation amplitude was obtained in every second using fast Fourier transform (FFT). The FFT intensity at the oscillation frequency was then plotted against time to illustrate both the binding trend and decoding process. Response curve fitting and calculation of binding kinetic constants were conducted using Scrubber (BioLogic Software). All data were visualized using Origin and MATLAB.

decoding sequence 2 = settings: for Median of amplitude change for association: group 2 barcode nano-oscillators, hybridization signal; for averaged equilibrium affinity constant (KA): second barcode group hybridized with its DNA decoding sequence, 37 individual nano-oscillators per probe
Protocol: as §1, §2, §3, §4

Row | Compound | averaged equilibrium affinity constant (KA) (decoding sequence 1) | Median of amplitude change for association (decoding sequence 1) [nm] | Median of amplitude change for association (decoding sequence 2) [nm] | averaged equilibrium affinity constant (KA) (decoding sequence 2) | other results
1 | CC(C)NCC(O)COc1cccc2ccccc12 (centres unmarked) [Propranolol, Propranolol hydrochloride] |  |  |  |  | oscillation amplitude response of control nano-oscillators to ligand [1]: not obvious responding
2 | Tocrifluor |  |  |  |  | charge at pH 7.4 [2]: neutral
3 | biotin-(CH2)6-5′-ACAATACCTCGGCCCTTCTC-3′ [barcode 1 (group 1)] | (8.1±1.1)×10^8 M^−1 | 9.7 |  |  | 
4 | biotin-(CH2)6-5′-ACACTACCTCAGCCCTCCTC-3′ [barcode 3 (group 1)] | (5.9±0.82)×10^6 M^−1 | 7.5 |  |  | 
5 | biotin-(CH2)6-5′-ACACTACCTCAGCCCTCCTC-3′ [barcode 3 (group 2)] |  |  | 7.2 | (2.0±0.78)×10^6 M^−1 | 
6 | biotin-(CH2)6-5′-ACACTACCTCGGCCCTCCTC-3′ [barcode 2 (group 1)] | (5.3±0.74)×10^7 M^−1 | 9.6 |  |  | 
7 | biotin-(CH2)6-5′-GAGTTACTACAGACCATCGT-3′ [barcode 2 (group 2)] |  |  | 10.9 | (6.5±1.1)×10^7 M^−1 | 
8 | biotin-(CH2)6-5′-GAGTTGCTACAGACCTTCGT-3′ [barcode 1 (group 2)] |  |  | 11.6 | (7.1±0.98)×10^8 M^−1 | 
